Read-outs that look alike come from different tables or passages of the source.
Experiments:
[1] = 18-membered ring
[2] = biological target: K-Ras G12C(GMP-PNP) binding to BRAF RBD (Homo sapiens (Human), UniProt P01116+P62937, G12C); test: Disruption of BRAF RBD interaction with K-Ras (FRET / MOA assay), K-Ras G12C; format: biochemical; conditions: read-out: KRAS G12C FRET IC50
Outline: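 Compounds promote ternary complex of nucleotide-loaded Ras (here K-Ras G12C·GMP-PNP; other Ras mutants substituted) with cyclophilin A, disrupting BRAF RBD binding. 10-point 3-fold series from 30 μM final, 3 h at 25 °C, then anti-His Eu (10 nM) and anti-GST APC (50 nM) for 1.5 h. TR-FRET ratio decrease versus DMSO gave IC50.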

[3] = biological target: NRAS G12C binding to BRAF RBD (Homo sapiens (Human), UniProt P01111+P62937, G12C); test: Ras-Raf disruption/FRET/MOA assay, NRAS G12C; format: biochemical
Chain of NRAS G12C binding to BRAF RBD (P01111 whole entry G12C): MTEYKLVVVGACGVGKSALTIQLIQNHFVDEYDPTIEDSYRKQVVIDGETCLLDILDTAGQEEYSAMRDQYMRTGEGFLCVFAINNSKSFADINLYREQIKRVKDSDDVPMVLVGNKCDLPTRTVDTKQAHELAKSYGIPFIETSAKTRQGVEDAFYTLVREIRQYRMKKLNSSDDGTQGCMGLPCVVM
Chain of NRAS G12C binding to BRAF RBD (P62937 whole entry): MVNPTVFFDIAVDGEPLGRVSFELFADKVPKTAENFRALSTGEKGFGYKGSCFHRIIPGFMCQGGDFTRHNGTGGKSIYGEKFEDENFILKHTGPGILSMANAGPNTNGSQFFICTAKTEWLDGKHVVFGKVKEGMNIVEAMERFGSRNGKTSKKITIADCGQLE
Text: (§1) Note—The following protocol describes a procedure for monitoring disruption of K-Ras G12C(GMP-PNP) binding to BRAF^RBD by a compound of the invention. This protocol may also be executed substituting other Ras proteins or nucleotides.
(§2) The purpose of this biochemical assay was to measure the ability of test compounds to facilitate ternary complex formation between a nucleotide-loaded K-Ras isoform and Cyclophilin A; the resulting ternary complex disrupts binding to a BRAF^RBD construct, inhibiting K-Ras signaling through a RAF effector. Data is reported as IC50 values.
(§3) Compound was present in plate wells as a 10-point 3-fold dilution series starting at a final concentration of 30 μM. After incubation at 25° C. for 3 hours, a mixture of Anti-His Eu—W1024 and anti-GST allophycocyanin was then added to assay sample wells at final concentrations of 10 nM and 50 nM, respectively, and the reaction incubated for an additional 1.5 hours. […] Compounds that facilitate disruption of a K-Ras: RAF complex were identified as those eliciting a decrease in the TR-FRET ratio relative to DMSO control wells.

[4] = biological target: KRAS G13D binding to BRAF RBD (Homo sapiens (Human), UniProt P01116+P62937, G13D); test: Ras-Raf disruption/FRET/MOA assay, KRAS G13D; format: biochemical
Chain of KRAS G13D binding to BRAF RBD (P01116 other isoform, or with tags, fused parts or gaps G13D): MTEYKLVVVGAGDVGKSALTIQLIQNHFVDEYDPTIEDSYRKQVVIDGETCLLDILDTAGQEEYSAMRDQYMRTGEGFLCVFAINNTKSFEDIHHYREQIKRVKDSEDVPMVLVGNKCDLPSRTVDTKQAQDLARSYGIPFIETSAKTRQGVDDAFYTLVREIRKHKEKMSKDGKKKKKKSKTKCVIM
Chain of KRAS G13D binding to BRAF RBD (P62937 whole entry): as the sequence (P62937 whole entry) above
Text: as §1, §2, §3

NCI-H358 (K-Ras G12C) = test: CellTiter-Glo cell viability assay, NCI-H358; format: cell-based, human; conditions: Homo sapiens, NCI-H358, 120 h, 5-day treatment; read-out: H358 Cell Viability assay data (K-Ras G12C, IC50)
Outline: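 Viability read-out was luminescent (CellTiter-Glo) on day 5 of compound exposure in K-Ras G12C NCI-H358 cells. Values were expressed as percent of mean DMSO signal and fitted with a four-parameter logistic curve.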

[5] = biological target: KRAS G12S binding to BRAF RBD (Homo sapiens (Human), UniProt P01116+P62937, G12S); test: Ras-Raf disruption/FRET/MOA assay, KRAS G12S; format: biochemical
Chain of KRAS G12S binding to BRAF RBD (P01116 other isoform, or with tags, fused parts or gaps G12S): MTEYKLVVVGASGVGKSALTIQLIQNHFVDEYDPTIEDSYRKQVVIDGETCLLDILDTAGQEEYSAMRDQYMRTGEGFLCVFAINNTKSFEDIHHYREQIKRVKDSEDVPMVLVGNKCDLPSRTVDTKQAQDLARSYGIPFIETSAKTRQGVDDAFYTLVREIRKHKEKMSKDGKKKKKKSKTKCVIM
Chain of KRAS G12S binding to BRAF RBD (P62937 whole entry): as the sequence (P62937 whole entry) above
Text: as §1, §2, §3

[6] = biological target: KRAS WT binding to BRAF RBD (Homo sapiens (Human), UniProt P01116+P62937); test: Ras-Raf disruption/FRET/MOA assay, KRAS WT; format: biochemical
Chain of KRAS WT binding to BRAF RBD (P01116 other isoform, or with tags, fused parts or gaps): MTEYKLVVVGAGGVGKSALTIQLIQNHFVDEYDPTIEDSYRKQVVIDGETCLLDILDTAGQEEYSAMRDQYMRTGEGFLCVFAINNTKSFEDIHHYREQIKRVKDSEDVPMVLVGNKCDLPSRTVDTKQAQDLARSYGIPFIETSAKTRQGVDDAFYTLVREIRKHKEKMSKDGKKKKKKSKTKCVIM
Chain of KRAS WT binding to BRAF RBD (P62937 whole entry, the tested form may be a part): as the sequence (P62937 whole entry) above
Text: Disruption of B-Raf Ras-binding Domain (BRAF^RBD) Interaction with K-Ras by Compounds of the Invention (also called a FRET assay or an MOA assay)
as §1, §2
as §3, with “In assay buffer containing 25 mM HEPES pH 7.3, 0.002% Tween20, 0.1% BSA, 100 mM NaCl and 5 mM MgCl2, tagless Cyclophilin A, His6-K-Ras-GMPPNP, and GST-BRAF^RBD were combined in a 384-well assay plate at final concentrations of 25 μM, 12.5 nM and 50 nM, respectively. Compound was” for “Compound was”

[7] = tested on: Capan-1 cells (K-Ras G12V); test: CellTiter-Glo cell viability, Capan-1; format: cell-based, human; conditions: Homo sapiens, CAPAN-1, 120 h, K-Ras G12V, 5-day treatment; read-out: Capan-1 Cell Viability IC50
Outline: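 Viability read by luminescence on day 5 after direct compound addition to cells, following ~30 min room-temperature equilibration. Values expressed as percent of mean DMSO signal, curves fitted with a four-parameter logistic model.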

[8] = tested on: K-Ras G12C (NCI-H358 cells); test: Potency assay: pERK in NCI-H358 cells; format: cell-based, human; conditions: Homo sapiens; NCI-H358 cells, 4 hours; read-out: pERK EC50 (H358 KRAS G12C)
Outline: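 Cells plated the day before were exposed for 4 h at 37° C, 5% CO2 to a 10-point, 3-fold DMSO dilution series (10 mM top stock), in duplicate. Phospho-ERK was read by AlphaLISA SureFire Ultra or by In-Cell Western with DRAQ5 DNA stain, and IC50 came from a 4-parameter sigmoidal fit.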

Chain of K-Ras G12C(GMP-PNP) binding to BRAF RBD (P01116 other isoform, or with tags, fused parts or gaps G12C): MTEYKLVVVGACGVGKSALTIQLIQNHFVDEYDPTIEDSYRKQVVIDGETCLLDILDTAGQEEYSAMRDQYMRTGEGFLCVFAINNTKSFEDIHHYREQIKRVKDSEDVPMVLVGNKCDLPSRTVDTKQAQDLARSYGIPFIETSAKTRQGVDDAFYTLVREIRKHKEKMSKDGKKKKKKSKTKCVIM
Chain of K-Ras G12C(GMP-PNP) binding to BRAF RBD (P62937 whole entry): as the sequence (P62937 whole entry) above

Compound	IC50 [2]	IC50 [3]	IC50 [4]	IC50 (NCI-H358 (K-Ras G12C))	other results
CCn1c(-c2cccnc2[C@H](C)OC)c2c3cc(ccc31)-c1csc(n1)C[C@H](NC(=O)OC(C)(C)C)C(=O)N1CCC[C@H](N1)C(=O)OCC(C)(C)C2	–	–	–	–	ring closure, isolated yield ([1]; from CCn1c(-c2cccnc2[C@H](C)OC)c(CC(C)(C)CO)c2cc(-c3csc(C[C@H](NC(=O)OC(C)(C)C)C(=O)N4CCC[C@@H](C(=O)O)N4)n3)ccc21, ester bond, EDCI/HOBt/DIEA, DCM, 12.65 mM, 16.0 h): 81.1%
CCn1c(-c2cccnc2[C@H](C)OC)c2c3cc(ccc31)-c1csc(n1)C[C@H](NC(=O)OC(C)(C)C)C(=O)N1CC[C@H](C)[C@H](N1)C(=O)OCC(C)(C)C2	–	–	–	–	ring closure, isolated yield ([1]; from CCn1c(-c2cccnc2[C@H](C)OC)c(CC(C)(C)COC(=O)[C@H]2NN(C(=O)[C@H](Cc3nc(Br)cs3)NC(=O)OC(C)(C)C)CC[C@@H]2C)c2cc(B3OC(C)(C)C(C)(C)O3)ccc21, cc_pd bond, Pd(DtBPF)Cl2/K3PO4, dioxane/H2O 5:1, 17.5 mM, 60.0 °C, 1.0 h): 44.7%
CCn1c(-c2cccnc2[C@H](C)OC)c2c3cc(ccc31)N1CCC[C@@H](C[C@H](NC(=O)OCc3ccccc3)C(=O)N3CCC[C@H](N3)C(=O)OCC(C)(C)C2)C1	–	–	–	–	ring closure, isolated yield ([1]; from CCn1c(-c2cccnc2[C@H](C)OC)c(CC(C)(C)CO)c2cc(N3CCC[C@@H](C[C@H](NC(=O)OCc4ccccc4)C(=O)N4CCC[C@@H](C(=O)O)N4)C3)ccc21, ester bond, EDCI/HOBt/DIEA, DCM, 36.7 mM, 25.0 °C, 6.0 h): 36%
C=CC(=O)N1CC[C@H](C(=O)N(C)[C@H](C(=O)N[C@H]2Cc3cccc(c3)-c3ccc4c(c3)c(c(-c3cccnc3[C@H](C)OC)n4CC)CC(C)(C)COC(=O)[C@@H]3CCCN(N3)C2=O)C(C)C)C1 [Compound A114]	> 10000 nM	> 10000 nM	> 10 µM	–	–
C=CC(=O)N1CC[C@H](C(=O)N(C)[C@H](C(=O)N[C@H]2Cc3cc(O)cc(c3)-c3ccc4c(c3)c(c(-c3cccnc3COC)n4CC)CC(C)(C)COC(=O)[C@@H]3CCCN(N3)C2=O)C(C)C)C1 [Compound A137]	–	100 to 1000 nM	> 10 µM	> 10000 nM	–
CC#CC(=O)N1CC[C@H](C(=O)N(C)[C@H](C(=O)N[C@H]2Cc3cc(O)cc(c3)-c3ccc4c(c3)c(c(-c3cncnc3)n4CC)CC(C)(C)COC(=O)[C@@H]3CCCN(N3)C2=O)C(C)C)C1 [Compound A169]	100 to 1000 nM	100 to 1000 nM	> 10 µM	100 to 1000 nM	–
CCn1c(-c2cnccc2COC)c2c3cc(ccc31)-c1cc(O)cc(c1)C[C@H](NC(=O)[C@H](C(C)C)N(C)C(=O)O[C@H]1CCOC1)C(=O)N1CCC[C@H](N1)C(=O)OCC(C)(C)C2 [Compound A260]	10 to 100 nM	–	–	< 10 nM	IC50 [5]: 10 to 100 nM; IC50 [6]: 10 to 100 nM; IC50 [7]: 1 to 10 µM
C/C=C/S(=O)(=O)N1CC[C@H](C(=O)N(C)[C@H](C(=O)N[C@H]2Cc3cc(O)cc(c3)-c3ccc4c(c3)c(c(-c3ccncc3[C@H](C)OC)n4CC)CC(C)(C)COC(=O)[C@@H]3CCCN(N3)C2=O)C(C)C)C1 [Compound A280]	10 to 100 nM	100 to 1000 nM	0.1 to 1 µM	10 to 100 nM	EC50 [8]: < 5 µM; IC50 [6]: 10 to 100 nM
C=CC(=O)N1CC[C@H](C(=O)N(C)[C@H](C(=O)NC2C[C@@H]3CN(CCO3)c3ccc4c(c3)c(c(-c3cccnc3COC)n4CC)CC(C)(C)COC(=O)[C@@H]3CCCN(N3)C2=O)C(C)C)C1 (some centres unmarked) [Compound A318]	> 10000 nM	> 10000 nM	> 10 µM	> 10000 nM	–
CCn1c(-c2cccnc2[C@H](C)OC)c2c3cc(ccc31)-c1csc(n1)C[C@H](NC(=O)[C@H](C(C)C)N(C)C(=O)N1CC(C#N)C1)C(=O)N1CCC[C@H](N1)C(=O)OCC(C)(C)C2 [Compound A382]	–	–	–	< 10 nM	IC50 [5]: 10 to 100 nM; IC50 [6]: 10 to 100 nM
CCn1c(-c2cccnc2[C@H](C)OC)c2c3cc(ccc31)-c1cccc(c1)C[C@H](NC(=O)[C@H](C(C)C)N(C)C(=O)[C@H]1CCN(C(=O)C#C[C@@H]3CC(F)(F)CN3C)C1)C(=O)N1CCC[C@H](N1)C(=O)OCC(C)(C)C2 [Compound A526]	10 to 100 nM	10 to 100 nM	> 10 µM	< 10 nM	–
(2S,6S)—N-((6^3S,3S,4S,Z)-3-(2-(dimethylamino) ethoxy)-1^1-ethyl-1^2-(2-((S)-1-methoxyethyl) pyridin-3-yl)-10, 10-dimethyl-5,7-dioxo-6^1,6^2,6^3,6^4,6^5,6^6-hexahydro-1^1H-8-oxa-2 (4,2)-thiazola-1 (5,3)-indola-6 (1,3)-pyridazinacycloundecaphane-4-yl)-2,4,6-trimethylpiperazine-1-carboxamide	–	–	–	–	ring closure, isolated yield ([1]; cc_pd bond, Pd(dtbpf)Cl2/K3PO4, toluene/1,4-dioxane/H2O 3:1:1, 57.0 mM, 60.0 °C): 50%

The next lines start with results.

IC50 [2]	IC50 [3]	IC50 [4]	IC50 (NCI-H358 (K-Ras G12C))	Compound	other results
10 to 100 nM	10 to 100 nM	0.1 to 1 µM	< 10 nM	C=CC(=O)N1CC[C@H](C(=O)N(C)[C@H](C(=O)N[C@H]2Cc3csc(n3)-c3ccc4c(c3)c(c(-c3cc(N5CCN(C)CC5)cnc3[C@H](C)OC)n4CC(C)(F)F)CC(C)(C)COC(=O)[C@@H]3CCCN(N3)C2=O)C(C)C)C1 [Compound A410]	EC50 [8]: < 5 µM
10 to 100 nM	10 to 100 nM	1 to 10 µM	< 10 nM	CCn1c(-c2cccnc2[C@H](C)OC)c2c3cc(ccc31)-c1cc(C(F)F)cc(n1)C[C@H](NC(=O)[C@H](C1CCCC1)N(C)C(=O)[C@H]1CCN(C(=O)C#CC(C)(C)N3CCC3)C1)C(=O)N1CCC[C@H](N1)C(=O)OCC(C)(C)C2 [Compound A456]	–
100 to 1000 nM	100 to 1000 nM	1 to 10 µM	< 10 nM	CC#CC(=O)N1CC[C@]2(CCC([C@H](C(=O)N[C@H]3Cc4nc(cs4)-c4ccc5c(c4)c(c(-c4cccnc4[C@H](C)OC)n5CC)CC(C)(C)COC(=O)[C@@H]4CCCN(N4)C3=O)C(C)C)C2=O)C1 (some centres unmarked) [Compound A511]	–
–	–	–	< 10 nM	CCn1c(-c2cc(C3CCN(C)CC3)cnc2[C@H](C)OC)c2c3cc(ccc31)-c1cc(O)cc(c1)C[C@H](NC(=O)[C@H](C(C)C)N(C)C(=O)[C@@H]1OCC[C@@H]1c1ccccc1)C(=O)N1CCC[C@H](N1)C(=O)OCC(C)(C)C2 [Compound A577]	EC50 [8]: < 5 µM; IC50 [5]: 10 to 100 nM
10 to 100 nM	–	–	< 10 nM	CCn1c(-c2cc(N3CCN(C)CC3)cnc2[C@H](C)OC)c2c3cc(ccc31)-c1cc(O)cc(c1)C[C@H](NC(=O)[C@H](C(C)C)N(C)C(=O)[C@@H]1OCC[C@@H]1c1ccccc1)C(=O)N1CCC[C@H](N1)C(=O)OCC(C)(C)C2 [Compound A594]	EC50 [8]: < 5 µM; IC50 [6]: 10 to 100 nM
